{"source": "patent US20240325461A1", "about": "“COMBINATION THERAPIES FOR THE TREATMENT OF DISEASES” (Research Development Foundation, priority 2023, published 2024)", "key": {"[1]": {"test_system": "Procollagen Type-1 N Terminal Propeptide (P1NP)", "assay": "Plasma bone formation marker P1NP (ELISA)", "assay_type": "in vivo, mice", "conditions": "P. goldsteinii 1.5 OD/ml, 200 μl every second day, given with alendronate 80 μg/kg BW once a week", "protocol": "Supplementation of P. goldsteinii increases secretion the bone formation marker P1NP, measured at Day 29 (FIG. 18A), or Day 50 (FIG. 18B) after the beginning of the treatment.\nMeasuring plasma bone turnover markers: After 5 h fasting (during the treatment), blood samples were collected from the tail of the mice with microvette capillary tubes containing EDTA and plasma was isolated after centrifuging 10000 g for 10 minutes. Plasma samples are collected during sacrifice (at the end of experiment) by taking 500 μl of blood from terminally anesthetized mice in tubes with 10 μl of […] EDTA, 4 μl of aprotinin (1.3%) and 4 μl of DPP-IV (10 mM), followed by centrifugation as described before. N-terminal pro-collagen type 1 extension pro-peptide (PINP) was measured with an ELISA kit (cat no:AC-33F, Immunodiagnostic Systems) according to manufacturers' instructions."}, "[2]": {"test_system": "ovariectomized female mice", "assay": "3-point bending test of femur, curative model", "assay_type": "in vivo, C57BL/6J mice", "conditions": "postmortem, day 60", "excerpt": "(§1) A curative mouse model for osteoporosis was used for experiments, as follows. 16-week old female C57Bl/6J mice were ovariectomized and left for 2 months to develop the symptoms of osteoporosis and postmenopausal weigh gain and glucose intolerance. Administration of the respective treatment was initiated following these 2 months after the ovariectomies, i.e, once the mice already developed the symptoms of the respective metabolic disease.\nOvariectomy: 16 weeks old C57Bl/6J female mice, obtained through Janvier, were be anesthetised with Xylazin/Ketamin (injection of 120 μl of a mixture of 120 mg/kg ketamine and 16 mg/kg xylazine) and shaved below the ribs on the back side. Betadine was be applied to the area for appropriate disinfection. After a 1-2 cm incision through the skin and the muscle layer just below the ribs, the ovary was localized, the fallopian tube ligated with dissolving suture and the ovary removed. The muscle layer was sutured with dissolving suture, the wound closed with staples and disinfected. The same procedure was/will be performed on the other side. A dose of Tamgesic was/will be administered 4 hours after the surgery, and the staples were removed 7 days after the surgery under isoflurane anesthesia. The sham-operated animals underwent the same procedure, without ligating the fallopian tube and the ovary excision. All mice were then kept for additional 2 months after the ovariectomies before starting the respective curative treatments.\nMicrobiota transplantation: Lactobacillus gasseri (DSM 20604) and Parabacteroides goldsteinii (DSM 19948) were pushased from DSMZ. Lactobacillus reuteri (PTA-6475) was obtained from ATCC. […] Freshly prepared bacteria were diluted in anaerobic PBS to a final concentration equivalent to 1.5 OD/ml at 600 nm. 200 ul of this suspension was gavaged every second day to ovariectomized mice, starting 2 months post-surgery for 38 day. From day 38 of the gavage until the day od sacrifice at day 60 the concentration was equivalent to 2 OD/ml at 600 nm, of which 200 ul was gavaged.\nThe amount administered was 80 μg/kg body weight once per week with subcutaneous injection, in total amount of 100-200 μl per injection."}, "[3]": {"conditions": "curative model; treatment started 2 months after ovariectomy; alendronate 80 μg/kg/week s.c.; HI P. goldsteinii by gavage every second day"}, "[4]": {"test_system": "ovariectomized female mice", "assay": "Intraperitoneal insulin tolerance test, curative model", "assay_type": "in vivo, C57BL/6J mice", "conditions": "test on day 52 of administration", "protocol": "as §1\nInsulin sensitivity (normalized values) was measured by intraperitoneal insulin tolerance test of ovariectomized female mice, administered with the respective treatment starting 2 months flowing the surgery, considered as day 0. Test is performed on day 52 after staring the administration.\nOvariectomy: 16 weeks old C57Bl/6J female mice, obtained through Janvier, were be anesthetised with Xylazin/Ketamin (injection of 120 μl of a mixture of 120 mg/kg ketamine and 16 mg/kg xylazine) and shaved below the ribs on the back side. Betadine was be applied to the area for appropriate disinfection. After a 1-2 cm incision through the skin and the muscle layer just below the ribs, the ovary was localized, the fallopian tube ligated with dissolving suture and the ovary removed. The muscle layer was sutured with dissolving suture, the wound closed with staples and disinfected. The same procedure was/will be performed on the other side. […]"}}, "data": [{"smiles": "NCCCC(O)(P(=O)(O)O)P(=O)(O)O", "note": "[alendronate]", "values": [{"measurement": "P1NP levels after 50 days of treatment", "setting": "[1]", "value": "reduction in P1NP levels"}, {"measurement": "Elastic energy of femurs (femur metaphysis, FIG. 10)", "setting": "[2]", "value": "no changes"}, {"measurement": "Elastic energy, femur midshaft", "setting": "[2]", "value": "No changes"}, {"measurement": "Stiffness, femur metaphysis", "setting": "[2]", "value": "corrected ovariectomy induced decreases in stiffness"}, {"measurement": "Stiffness, femur midshaft", "setting": "[2]", "value": "No changes"}, {"measurement": "Ultimate stress, femur metaphysis", "setting": "[2]", "value": "not observed to result in a statistically significant increase"}, {"measurement": "Ultimate stress, femur midshaft", "setting": "[2]", "value": "not observed to result in improvements"}, {"measurement": "Body weight gain", "setting": "[3]", "value": "did not alter the body weight"}, {"measurement": "Insulin sensitivity (intraperitoneal insulin tolerance test)", "setting": "[4]", "value": "unaffected"}]}]}
